In patent US8252807B2, “Methods of inhibiting the interaction between S100 and the receptor for advanced glycation end-products” (Board of Regents, The University of Texas System, priority 2007, dated 2012):

Tests used:
[1] = tested on: NFκB activity of BxPC-3 cells transplanted orthotopically; assay: NFκB promoter activity in vivo, orthotopic BxPC-3 tumors; set-up: species or system mice
Experimental: FIGS. 3A, 3B, and 3C show the effect of cromolyn on S100P stimulated NFκB promoter activity in pancreatic cancer cells in vitro and in vivo. Panc-1 and BxPC-3 pancreatic cancer cell lines stably expressing an NFκB luciferase reporter were examined for the effects of S100P and cromolyn. […] Means and 95% confidence intervals are shown for three independent experiments performed in triplicate. *, P=0.022, †, P<0.001, and ‡, P<0.001 versus control; #, P=0.005 versus 100 nM S100P alone. […] Means and 95% confidence intervals are shown for three independent experiments performed in triplicate. *, P=0.003, †, P<0.001 versus control. […] After 1 week, tumor growth was assessed and NFκB activity was analyzed using an IVIS system (Xenogen Corp., Alameda, Calif.) after injecting mice with D-luciferin (150 mg per kg body weight) (0 time point). The mice were treated with cromolyn (5 mg per kg body weight by intraperitoneal injection), and NFκB luciferase activity was analyzed again at 24 and 48 hours. *, P=0.005 versus control. Means and 95% confidence intervals are shown for two independent experiments (n=4 mice per group). Two-tailed two-sample (unpaired for in vitro and paired for in vivo studies) Student's t-tests were used to determine P values.
To measure NFκB promoter activity in vivo, BxPC-3 cells (50,000/50 μL) stably expressing a Lenti-NFkB-luc reporter were transplanted orthotopically into the pancreas of 4-week-old male CB 17 scid mice (n=4 mice per experiment). After 1 week mice were injected with D-luciferin (150 mg per kg body weight, i.p.), and basal NFκB activity was determined using the IVIS system. Subsequently, mice were injected with cromolyn (5 mg per kg body weight, i.p.), and NFκB luciferase activity was re-analyzed after 24 and 48 hours. These experiments were performed three times.

Panc-1 cells = assay: Panc-1 cell growth (MTS); type: cell-based
Experimental: Panc-1 pancreatic adenocarcinoma cells (1.0×10^3 cells/well) were cultured in the presence or absence of S100P (100 nM) and with or without cromolyn (100 μM), and cell proliferation was analyzed at 24, 48, and 72 hours. Means and 95% confidence intervals of three independent experiments performed in triplicate are shown. *, P=0.001, S100P alone versus S100P+cromolyn.
Panc-1 cells were plated at 1.0×10^3 cells/well and treated with platelet-derived growth factor (10 ng/mL) with or without cromolyn (100 μM), and cell proliferation was analyzed after 48 hours. Means and 95% confidence intervals of three independent experiments performed in triplicate are shown. *, P=0.004 PDGF and P=0.022 cromolyn+PDGF versus control.
Growth of Panc-1 and BxPC3 pancreatic adenocarcinoma cells was analyzed using MTS reagent (Promega, Madison, Wis.) according to the manufacturer's directions. Purified S100P (100 nM final concentration) with or without cromolyn (100 μM final concentration) was added to Panc-1 cells. Only cromolyn (0-100 μM) was added to BxPC-3 cells, which express endogenous S100P. For both cell models, 1.0×10^3 cells/well were plated in 96-well culture dishes. Cells were treated with S100P, PDGF, or cromolyn, or a combination, followed immediately by treatment with either S100P or PDGF. MTS (20 μL per well) was added to cells at various times, and the mixture was incubated for 1 hour at 37° C. Samples were then read at 490 nm (as O.D. units) on a uQuant-Microplate Spectrophotometer (Bio-Tek Services Inc., Richmond, Va.). The assay was performed three times in triplicate.

BxPC-3 cells [2] = assay: Matrigel invasion assay, BxPC-3; type: cell-based; details: 24 hours; for BxPC-3 cells invaded, mean: 0 μM mean=19.3%
Experimental: FIGS. 2A-2D show the effect of cromolyn on pancreatic cancer cell invasion. Panc-1 and BxPC-3 cells were plated in Bio-coat matrigel and control chambers and cultured in serum-free culture media. After 24 hours non-invaded cells in the upper chamber were removed, and cells that invaded onto the lower surface of the membrane were counted from five adjacent fields. […] Data are expressed as the percent invasion through the matrigel matrix and membrane relative to migration through the control membrane. Means and 95% confidence intervals from three independent experiments performed in triplicate are shown. Two-tailed two-sample (unpaired) Student's t-tests were used to determine P values. Panc-1 and BxPC-3 cells were seeded in BIOCOAT matrigel invasion chambers and in control chambers without matrigel (Becton-Dickinson, Bedford, Mass.) according to the manufacturer's protocol. Panc-1 cells were seeded with S100P (100 nM) with or without cromolyn (100 μM), and BxPC-3 cells were seeded with or without cromolyn (1-100 μM). Briefly, 2.0×10^5 cells in 300 μL top solution (serum-free media) were added to each chamber and allowed to invade matrigel for 24 hours at 37° C. in a 5% CO2 atmosphere. The non-invading cells on the upper surface of membrane were removed from the chambers with a cotton swab, and the invading cells on the lower surface of the membrane were fixed and stained using a Diff-Quick stain kit (Becton Dickinson, Bedford, Mass.). After two washes with water, the chambers were allowed to air dry. The numbers of invading cells in five adjacent microscope fields per membrane were counted at 20× magnification to obtain the average number of cells per field. Data are expressed as the percent invasion through the matrigel matrix and membrane relative to the migration through the control membrane. The assays were performed three times.

[3] = tested on: S100s A1, B, A12, and A13; details: previously found; cited from earlier work
BxPC-3 cells [4] = assay: BxPC-3 cell viability, 72 hours; type: cell-based
Experimental: BxPC-3 cells were plated at 1.0×10^3 cells/well and treated with 0 μM, 1 μM, 10 μM, and 100 μM of cromolyn or C5 alone or in combination with gemcitabine 1 μM and cell viability was analyzed after 72 hours. Two-tailed two-sample (unpaired) Student's t-tests were used to determine P values. […] BxPC-3 cells were plated at 1.0×10^3 cells/well and treated with either 100 μM of cromolyn or 1 μM C5 alone or in combination with gemcitabine (1 μM) and cell viability was analyzed after 72 hours.

S100B with RAGE = S100B with RAGE (Homo sapiens, UniProt P04271); assay: S100B binding with RAGE ELISA (sRAGE coated plate)
Sequence of S100B with RAGE (P04271 whole entry, species assumed): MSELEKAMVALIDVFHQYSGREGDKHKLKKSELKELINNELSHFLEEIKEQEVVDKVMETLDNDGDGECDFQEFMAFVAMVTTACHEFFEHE
Text: After removing un-bound S100B by washing with detergent, bound S100B and RAGE complex was quantified by adding HRP labeled antibody against S100B.

## O=C(O)c1cc(=O)c2c(OCC(O)COc3cccc4oc(C(=O)O)cc(=O)c34)cccc2o1 [cromolyn, disodium 1,3-bis[(2′-carboxylatochromon-5′-yl)oxy]-2-hydroxypropane]
[1]; 24 h after single dose 5 mg per kg i.p., 0 h mean=9.9×10^6
  NFκB luciferase activity in vivo, mean: 1.3×10^6 photons/sec
[1]; 24 hours after single dose 5 mg per kg i.p.
  reduction of basal NFκB activity in vivo: at least 80%
[1]; 48 hours after single dose 5 mg per kg i.p.
  NFκB activity in vivo at 48 hours: returned to control levels
[1]; single dose 5 mg per kg i.p.
  NFκB luciferase activity in vivo, difference 0 h versus 24 h: 8.6×10^6 photons/sec
Panc-1 cells
  serum stimulated Panc-1 cell proliferation: did not influence
Panc-1 cells; PDGF 10 ng/mL, cromolyn 100 μM, 48 hours
  PDGF-stimulated Panc-1 growth in presence of cromolyn: nor did it inhibit growth stimulation caused by PDGF
Panc-1 cells; S100P 100 nM + cromolyn 100 μM
  Panc-1 cell proliferation, mean: 0.56 MTS units
Panc-1 cells; S100P 100 nM, cromolyn 100 μM
  Panc-1 cell proliferation, difference S100P versus S100P+cromolyn: 0.37 MTS units
  effects of exogenous S100P treatment on Panc-1 proliferation: completely blocked
Panc-1 cells; no S100P
  Panc-1 cell proliferation, cromolyn treatment alone: no effect
BxPC-3 cells [2]; cromolyn 10 μM
  BxPC-3 cells invaded, difference versus 0 μM: 10.0%
  BxPC-3 cells invaded, mean: 9.3%
BxPC-3 cells [2]; cromolyn 100 μM
  BxPC-3 cells invaded, difference versus 0 μM: 11.7%
  BxPC-3 cells invaded, mean: 7.7%
[3]
  binding to S100 proteins: bind
BxPC-3 cells [4]; 1-100 μM, alone or with gemcitabine 1 μM
  BxPC-3 cell viability: inhibit BxPC-3 cell viability
BxPC-3 cells [4]; with gemcitabine 1 μM
  concentration giving the same level of cell reduction in combination with gemcitabine: 100 µM
S100B with RAGE
  interaction of S100B with RAGE: inhibit the interaction of S100B with RAGE
